Common to all, as to experiment: relative viability (nuclei count vs DMSO), 5 days (fraction); higher = more cells survive
Compound in the assay “Etoposide + Bortezomib”: COc1cc([C@@H]2c3cc4c(cc3[C@@H](O[C@@H]3O[C@@H]5CO[C@@H](C)O[C@H]5[C@H](O)[C@H]3O)[C@H]3COC(=O)[C@H]23)OCO4)cc(OC)c1O [Etoposide] + CC(C)C[C@H](NC(=O)[C@H](Cc1ccccc1)NC(=O)c1cnccn1)B(O)O [Bortezomib] (partner 0.002 µM)
A digest of the protocol:
(§1)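 For relative viability, nuclei counts in treated wells were divided by those in vehicle wells. Lung cancer cell lines had been pin-tool dosed in 1536-well plates the day after seeding and cultured for 5 days, then fixed and stained in one step (final 0.05% Triton X-100, 1% formaldehyde, 1 ug/ml Hoechst) and imaged at 4×. Doses were one drug alone or a fixed anchor-drug dose plus five library-drug doses (not always all listed) in √10 steps, and values are duplicate-plate medians.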

Compound in the assay “Etoposide + Pemetrexed”: COc1cc([C@@H]2c3cc4c(cc3[C@@H](O[C@@H]3O[C@@H]5CO[C@@H](C)O[C@H]5[C@H](O)[C@H]3O)[C@H]3COC(=O)[C@H]23)OCO4)cc(OC)c1O [Etoposide] + Nc1nc2[nH]cc(CCc3ccc(C(=O)N[C@@H](CCC(=O)O)C(=O)O)cc3)c2c(=O)[nH]1 [Pemetrexed] (partner 0.2 µM)
A digest of the protocol:
as §1

Compound in the assay “Etoposide + Luminespib”: COc1cc([C@@H]2c3cc4c(cc3[C@@H](O[C@@H]3O[C@@H]5CO[C@@H](C)O[C@H]5[C@H](O)[C@H]3O)[C@H]3COC(=O)[C@H]23)OCO4)cc(OC)c1O [Etoposide] + CCNC(=O)c1noc(-c2cc(C(C)C)c(O)cc2O)c1-c1ccc(CN2CCOCC2)cc1 [Luminespib] (partner 0.01 µM)
A digest of the protocol: as §1

Compound in the assay “Bleomycin + Trametinib”: CC1=C(N=C(N=C1N)[C@H](CC(=O)N)NC[C@@H](C(=O)N)N)C(=O)N[C@@H]([C@H](C2=CN=CN2)OC3C(C(C(C(O3)CO)O)O)OC4C(C(C(C(O4)CO)O)OC(=O)N)O)C(=O)N[C@H](C)[C@H]([C@H](C)C(=O)N[C@@H]([C@@H](C)O)C(=O)NCCC5=NC(=CS5)C6=NC(=CS6)C(=O)NCCC[S+](C)C)O [Bleomycin] + CC(=O)Nc1cccc(-n2c(=O)n(C3CC3)c(=O)c3c(Nc4ccc(I)cc4F)n(C)c(=O)c(C)c32)c1 [Trametinib] (partner 0.02 µM)
To be noted: main component drawn. A digest of the protocol:
as §1

For the cell line UMC-11, the relative viability in the assay with Etoposide + Bortezomib (first compound 0.01 µM) is 0.685; in the assay with Etoposide + Bortezomib (first compound 0.03162 µM) it was 0.777; with Etoposide + Bortezomib (first compound 0.3162 µM), 0.389; with Etoposide + Bortezomib (first compound 1 µM), 0.187; with Etoposide + Pemetrexed (first compound 0.01 µM), 0.809; in the assay with Etoposide + Pemetrexed (first compound 0.03162 µM) it was 0.789. For the same cell line, the relative viability in the assay with Etoposide + Pemetrexed (first compound 0.1 µM) worked out at 0.768; with Etoposide + Pemetrexed (first compound 0.3162 µM), 0.53; with Etoposide + Pemetrexed (first compound 1 µM) it was 0.313; with Etoposide + Luminespib (first compound 0.01 µM), 1; with Etoposide + Luminespib (first compound 0.03162 µM), 1.09; with Etoposide + Luminespib (first compound 0.1 µM) it was 0.783. Also, the relative viability in the assay with Etoposide + Luminespib (first compound 0.3162 µM) was determined as 0.566; with Etoposide + Luminespib (first compound 1 µM) it was 0.279; with Bleomycin + Trametinib (first compound 0.01 µM) it was 0.653; with Bleomycin + Trametinib (first compound 0.03162 µM), 0.652; with Bleomycin + Trametinib (first compound 0.1 µM), 0.774; with Bleomycin + Trametinib (first compound 0.3162 µM) it was 0.632. Also, the relative viability in the assay with Bleomycin + Trametinib (first compound 1 µM) turned out to be 0.345.
